In patent US20100263095A1, “METHOD FOR GROWING SUGARCANE” (SYNGENTA CROP PROTECTION, INC., priority 2007, published 2010):

What was measured:
[1] = tested on: sugarcane Variety RB 86-7515; experiment: Greenhouse pot test: effect of formulated thiamethoxam on vigour; format: in vivo, sugar cane; conditions: result in words
Description: This trial was conducted on Variety RB 86-7515.

[2] = tested on: sugar cane Variety RB 86-7515; experiment: Greenhouse pot test: effect of formulated abamectin on vigour; format: in vivo; conditions: Carretel with one bud; 100 g ai/ha; 42 days after planting
Description: Greenhouse test with sugarcane buds growing in pots were conducted to study the effect of formulated abamectin regarding “vigour”, tillers, plant height, leaf width and culm diameter on sugar cane Variety RB 86-7515.
Twenty 1 L pots were filled with 16 L of clay soil, 1.6 L of sand and 8 g of nitrogen, 28 g of phosphorus (P2O5) and 16 g of potassium (K2O). Six carretels of 4 cm length with only one bud were planted in each pot (treatments 1, 2, 4 and 5). Two stalks with three buds were planted in each control pot (treatments 3 and 6) to simulate conventional planting. A layer of 3 cm of soil was used to cover the carretels. The carretels of treatments 1, 2 were treated with 200 ml/ha of abamectin, by dipping the carretels in the slurry for 3 min, based on the uptake capacity of carretels. The stalks were treated simulating a furrow application at 100 L·ha^−1 of slurry. Experimental design adopted was randomized complete block with four replications. The pots were maintained with adequate moisture during the test. Evaluations of: plant height, leaf width, culm diameter and number of tillers were done at 20, 30 and 42 days after planting.

[3] = tested on: sugar cane Variety RB 86-7515; experiment: Greenhouse pot test: effect of formulated fipronil on vigour; format: in vivo; conditions: result in words
Description: Greenhouse test with sugarcane buds growing in pots were conducted to study the effect of fipronil equivalent to an application rate of 200 g. ha^−1 on “vigour”, evaluating tillers, plant height, leaf width and culm diameter on sugar cane Variety RB 86-7515.
Twenty 1 L pots were filled with 16 L of clay soil, 1.6 L of sand and 8 g of nitrogen, 28 g of phosphorus (P2O5) and 16 g of potassium (K2O). Six carretels of 4 cm length with one bud were planted in each pot (treatments 1, 2, 4 and 5). Two stalks with three buds were planted in each control pot (treatments 3 and 6) to simulate conventional planting. A layer of 3 cm of soil was used to cover the carretels. The carretels of treatments 1 and 2 were treated with 200 g ai·ha^−1 of fipronil, by dipping the carretels in the slurry for 3 min, based on the uptake capacity of carretels. The stalks were treated simulating a furrow application at 100 L·ha^−1 of slurry. Experimental design adopted was randomized complete block with four replications. The pots were maintained with adequate moisture during the test. Evaluations of: plant height, leaf width, culm diameter and number of tillers were done at 20, 30 and 42 days after planting.

With `CN1COCN(Cc2cnc(Cl)s2)/C1=N\[N+](=O)[O-]` [Thiamethoxam, thiamethoxam] the “number of tillers in comparison with the corresponding controls” value ([1]; carretels) was “increased number of tillers”, the “plant height in comparison with the corresponding controls” value ([1]; carretels) was “reduced plant height” and the ““quality” compared with the other treatments” value ([1]; overall assessment, not apparent from the listed parameters) was “increase in “quality” greater than the other treatments”.

For abamectin, the Tillers [2] was 14 number.

For `N#Cc1nn(-c2c(Cl)cc(C(F)(F)F)cc2Cl)c(N)c1[S+]([O-])C(F)(F)F` (centres unmarked) [Fipronil, fipronil], the “height of the resultant plants in comparison with the control” value [3] was “decreased the height”.
